Laboratory results taken from patent US11357229B2, “Composition, uses and preparation process thereof, as well as method to ensure high corn crop yield” (priority 2011, dated 2022).

Experiments:
Type in all cases: in vivo, Zea mays
[1] = tested on: corn; assay: Ethephon applied to corn at stage V8, Nova Mutum; methomyl and pyraclostrobin+epoxyconazole added in all treatments; settings: V8, 5 g ha^−1 a.i.
Protocol: Example 1—Effect of Growth Regulator Ethephon Applied to Corn at the Stage of Development V8
(§1) In the moment of the application, the insecticide methomyl (215 g ha^−1 a.i.) and the fungicide pyraclostrobin+epoxyconazole (99.75+37.5 g ha^−1 a.i.) were added in all treatments, including the control.

[2] = tested on: corn; assay: Ethephon applied to corn at stage V6, Nova Mutum; chlorantraniliprole and cyproconazole+azoxystrobin added in all treatments; settings: V6, 5 g ha^−1 a.i.
Protocol: Example 2—Effect of Growth Regulator Ethephon Applied to Corn at the Stage of Development V6
(§2) In the moment of the application, the insecticide chlorantraniliprole (25 g ha^−1 a.i.) and the fungicide cyproconazole+azoxystrobin (24+60 g ha^−1 a.i.) were added in all treatments, including the control.

[3] = tested on: corn; assay: BF 428-5 applied to corn at stage V8, Nova Mutum; methomyl and pyraclostrobin+epoxyconazole added in all treatments; settings: for Increased Yield: 100,000 plants/ha vs control at normal density
Protocol: Example 5—Effect of Growth Regulator BF 428-5 Applied to Corn at the Stage of Development V8
as §1

[4] = tested on: corn; assay: BF 428-5 applied to corn at stage V6, Nova Mutum; chlorantraniliprole and cyproconazole+azoxystrobin added in all treatments; settings: for Height (shoot length): 30 DAA; for Increased Yield: 100,000 plants/ha vs control at normal density
Protocol: Example 6—Effect of Growth Regulator BF 428-5 Applied to Corn at the Stage of Development V6
as §2

CSC(=O)c1cccc2nnsc12 [Acybenzolar-S-methyl, acybenzolar-S-methyl]
Ear Diameter [1]: 53.7 mm | Ear Length [1]: 26.5 cm | Yield [1]: 4815.6 kg/ha | Height (shoot length) ([1]; 30 DAA): 206.8 cm | Population of corn plants 60,000 plants/ha, kg/corn plant ([1]; 60,000 plants/ha): 0.080 kg/corn plant | Ear Diameter [2]: 34.7 mm | Ear Length [2]: 21.9 cm | Yield [2]: 2662.2 kg/ha | Height (shoot length) ([2]; 30 DAA): 195.2 cm | Population of corn plants 60,000 plants/ha, kg/corn plant ([2]; 60,000 plants/ha): 0.044 kg/corn plant

C[N+](C)(C)CCCl [BF 428-05, chlormequat chloride]
effects on the corn plant ([3]; V8): reduction in shoot length, increased formation of adventitious roots, strengthening of the stem, strengthening of the root system, increased ventilation in the culture, proper development of male and female inflorescences | effect on length and diameter of ears of corn ([3]; V8 (Table 9)): does not reduce | yield reduction ([3]; V8 (Table 9)): no yield reduction | shoot length ([3]; V8, 30 DAA, all treatments with BF 428-5 (Table 9)): less than or equal to 218.8 cm | Ear Diameter ([3]; V8, 42.5 g ha^−1 a.i.): 54.3 mm | Ear Length ([3]; V8, 42.5 g ha^−1 a.i.): 27.8 cm | Yield ([3]; V8, 42.5 g ha^−1 a.i.): 5762.2 kg/ha | Height (shoot length) ([3]; V8, 42.5 g ha^−1 a.i., 30 DAA): 214.6 cm | Population of corn plants 60,000 plants/ha, kg/corn plant ([3]; V8, 42.5 g ha^−1 a.i.): 0.096 kg/corn plant | Population of corn plants 100,000 plants/ha, kg/corn plant ([3]; V8, 42.5 g ha^−1 a.i.): 0.096 kg/corn plant | Yield estimates 100,000 plants/ha ([3]; V8, 42.5 g ha^−1 a.i.): 9603.7 kg/ha | Increased Yield ([3]; V8, 42.5 g ha^−1 a.i.): 89.2% | Ear Diameter ([3]; V8, 85 g ha^−1 a.i.): 53.9 mm | Ear Length ([3]; V8, 85 g ha^−1 a.i.): 27.3 cm | Yield ([3]; V8, 85 g ha^−1 a.i.): 4355.6 kg/ha | Height (shoot length) ([3]; V8, 85 g ha^−1 a.i., 30 DAA): 218.8 cm | Population of corn plants 60,000 plants/ha, kg/corn plant ([3]; V8, 85 g ha^−1 a.i.): 0.073 kg/corn plant | Population of corn plants 100,000 plants/ha, kg/corn plant ([3]; V8, 85 g ha^−1 a.i.): 0.073 kg/corn plant | Yield estimates 100,000 plants/ha ([3]; V8, 85 g ha^−1 a.i.): 7259.3 kg/ha | Increased Yield ([3]; V8, 85 g ha^−1 a.i.): 43.0% | Ear Diameter ([3]; V8, 127.5 g ha^−1 a.i.): 54.2 mm | Ear Length ([3]; V8, 127.5 g ha^−1 a.i.): 27.2 cm | Yield ([3]; V8, 127.5 g ha^−1 a.i.): 4968.9 kg/ha | Height (shoot length) ([3]; V8, 127.5 g ha^−1 a.i., 30 DAA): 217.8 cm | Population of corn plants 60,000 plants/ha, kg/corn plant ([3]; V8, 127.5 g ha^−1 a.i.): 0.083 kg/corn plant | Population of corn plants 100,000 plants/ha, kg/corn plant ([3]; V8, 127.5 g ha^−1 a.i.): 0.083 kg/corn plant | Yield estimates 100,000 plants/ha ([3]; V8, 127.5 g ha^−1 a.i.): 8281.5 kg/ha | Increased Yield ([3]; V8, 127.5 g ha^−1 a.i.): 63.2% | yield increases ([3]; V8, estimation at 100,000 plants per hectare vs control at normal density of sowing (Table 10)): more than 43% | effects on the corn plant ([4]; V6): reduction in shoot length, increased formation of adventitious roots, strengthening of the stem, strengthening of the root system, increased ventilation in the culture, proper development of male and female inflorescences | effect on length and diameter of ears of corn ([4]; V6 (Table 11)): does not reduce | yield reduction ([4]; V6 (Table 11)): no yield reduction | Ear Diameter ([4]; V6, 42.5 g ha^−1 a.i.): 38.4 mm | Ear Length ([4]; V6, 42.5 g ha^−1 a.i.): 23.9 cm | Yield ([4]; V6, 42.5 g ha^−1 a.i.): 3126.7 kg/ha | Height (shoot length) ([4]; V6, 42.5 g ha^−1 a.i.): 206.0 cm | Population of corn plants 60,000 plants/ha, kg/corn plant ([4]; V6, 42.5 g ha^−1 a.i.): 0.052 kg/corn plant | Population of corn plants 100,000 plants/ha, kg/corn plant ([4]; V6, 42.5 g ha^−1 a.i.): 0.052 kg/corn plant | Yield estimates 100,000 plants/ha ([4]; V6, 42.5 g ha^−1 a.i.): 5211.2 kg/ha | Increased Yield ([4]; V6, 42.5 g ha^−1 a.i.): 80.5% | Ear Diameter ([4]; V6, 85 g ha^−1 a.i.): 37.0 mm | Ear Length ([4]; V6, 85 g ha^−1 a.i.): 22.9 cm | Yield ([4]; V6, 85 g ha^−1 a.i.): 1902.2 kg/ha | Height (shoot length) ([4]; V6, 85 g ha^−1 a.i.): 205.8 cm | Population of corn plants 60,000 plants/ha, kg/corn plant ([4]; V6, 85 g ha^−1 a.i.): 0.032 kg/corn plant | Population of corn plants 100,000 plants/ha, kg/corn plant ([4]; V6, 85 g ha^−1 a.i.): 0.032 kg/corn plant | Yield estimates 100,000 plants/ha ([4]; V6, 85 g ha^−1 a.i.): 3170.3 kg/ha | Increased Yield ([4]; V6, 85 g ha^−1 a.i.): 9.8% | Ear Diameter ([4]; V6, 127.5 g ha^−1 a.i.): 37.9 mm | Ear Length ([4]; V6, 127.5 g ha^−1 a.i.): 21.5 cm | Yield ([4]; V6, 127.5 g ha^−1 a.i.): 2500.0 kg/ha | Height (shoot length) ([4]; V6, 127.5 g ha^−1 a.i.): 200.3 cm | Population of corn plants 60,000 plants/ha, kg/corn plant ([4]; V6, 127.5 g ha^−1 a.i.): 0.042 kg/corn plant | Population of corn plants 100,000 plants/ha, kg/corn plant ([4]; V6, 127.5 g ha^−1 a.i.): 0.042 kg/corn plant | Yield estimates 100,000 plants/ha ([4]; V6, 127.5 g ha^−1 a.i.): 4166.7 kg/ha | Increased Yield ([4]; V6, 127.5 g ha^−1 a.i.): 44.3% | yield increases ([4]; V6, estimation at 100,000 plants per hectare vs control at normal density of sowing (Table 12)): more than 9.8%
